Read-outs that look alike come from different tables or passages of the source.
Tests used:
[1] = system: S. typhimurium TA1535/pSK1002; details: for decrease in 2AA genotoxicity: range over 2AA 5 mg/L and 1 mg/L
Protocol: (§1) The umu-test detects the induction of bacterial DNA-damage response, the SOS system, in the strain S. typhimurium TA1535/pSK1002. The test strain carries pSK1002 plasmid, which contains the fusion of umuC, encoding one of SOS response proteins, and lacZ genes. The expression of β-galactosidase protein is fully controlled by umuC gene.
(§2) In the present study, the umu-test was performed in the micro-plate format according to the ISO guideline. The β-galactosidase activity was determined by the degree of ONPG cleavage measured as sample absorbance at 420 nm. The extent of SOS system activation was presented as induction ratio (IR), calculated as the ratio of β-galactosidase activity in the presence of the tested compound(s) to that of negative control. […] The optical density at 600 nm was used to describe the bacteria growth. […] Both measurements were performed with Asys UVM340 Hightech microplate spectrophotometer.
The S9 fraction from rat liver was used for metabolic activation of the tested compounds and the model mutagen. […] The P450 cytochrome level in the isolate was evaluated and the aliquots were stored at −80 °C. The S9 reaction mix was prepared as described by Maron and Ames.
(§3) In order to the establish anti-genotoxic potential of tested compounds, their effects on the action of two model genotoxic agents, 4NQO without the metabolic activation with rat liver S9 fraction and 2AA with metabolic activation, were evaluated. […] Subsequently, the modulation of 4NQO and 2AA genotoxicity by the isoflavones, the elements and their mixtures in previously used concentrations was investigated.

[2] = system: LNCaP prostate cancer cells; assay: LNCaP cell proliferation (bisbenzimide H 33258-DNA fluorescence); format: cell-based, human; details: isoflavone 10 μM, Zn 0.5, Se 0.03, Cu 0.5, Fe 1.5, Ca 40 μg/mL
Protocol: LNCaP cells (passage 12–18) were maintained in DMEM medium supplemented with 10% (v/v) FBS, sodium pyruvate (1 mM), penicillin (100 U/mL) and streptomycin (100 μg/mL) at 37 °C in 5% CO2 humidified atmosphere.
The final concentration of DMSO was 0.05%. It must be noted that DMEM contains 1.8 mM of calcium. […] The cells were then gently washed with 0.9% saline and lysed by brief sonication in deionised water. The cell proliferation was quantified by measurement of bisbenzimide H 33,258–DNA complexes fluorescence on Synergy 4 microplate reader with Gen5 software (BioTek Instruments Inc., 100 Tigan St, Winooski, VT 05404, USA).

[3] = system: S. typhimurium TA1535/pSK1002; details: for G (growth ratio): −S9, NQO line = genotoxin alone; for anti-genotoxic activity against 4NQO (summary class): cells cover 4NQO […] and 0.05 mg/L, the single + corresponds to […] (Table 2)
Protocol: as §1, §2, §3

[4] = system: LNCaP cells; assay: LNCaP viability/apoptosis, Hoechst 33258 fluorescent imaging; format: cell-based, human; details: 48 h, Hoechst 33258 stain; genistein, Se, Fe; camptothecin 2 µM positive control
Protocol: The images were recorded with the DS-Fi1 camera connected with Eclipse TS100F inverted microscope with Epi-Fluorescent attachment (DAPI filter) and NIS-Elements BR 2.3 software.

[5] = 2AA 1 mg/L, +S9, daidzein or equol 10 μM with or without mineral (Table 6), 2AA line = genotoxin alone
[6] = 2AA 1 mg/L, +S9, genistein 10 μM and/or mineral added (Table 5), 2AA line = genotoxin alone
[7] = 2AA 5 mg/L, +S9, daidzein or equol 10 μM with or without mineral (Table 6), 2AA line = genotoxin alone
[8] = 2AA 5 mg/L, +S9, genistein 10 μM and/or mineral added (Table 5), 2AA line = genotoxin alone
[9] = 4NQO 0.05 mg/L, genistein 10 μM and/or mineral added (Table 2)
[10] = 4NQO […], genistein 10 μM and/or mineral added (Table 2)
[11] = −S9, isoflavone 10 μM, minerals Zn 0.5, Se 0.03, Cu 0.5, Fe 1.5, Ca 40 μg/mL
[12] = 2AA 1 mg/L, +S9 (second symbol of the cell)
[13] = 2AA 5 mg/L, +S9 (first symbol of the cell)
[14] = inhibition of IR induced by 2AA 1 mg/L, +S9 (Table 5)
[15] = inhibition of IR induced by 2AA 5 mg/L, +S9 (Table 5)

Row | SMILES | G (growth ratio) [1, 6] | G (growth ratio) [1, 8] | LNCaP proliferation, % of control ([2]; 48 h incubation) [%] | G (growth ratio) [3, 9] | G (growth ratio) [3, 10] | anti-genotoxic activity against 4NQO (summary class) [3] | G (growth ratio) [1, 11] | anti-genotoxic activity against 2AA (summary class) [1, 12] | anti-genotoxic activity against 2AA (summary class) [1, 13] | %Anti-Genotox. [1, 14] [%] | %Anti-Genotox. [1, 15] [%] | decrease in 2AA genotoxicity ([1]; +S9) | apoptosis / morphology of LNCaP cells [4] | LNCaP proliferation, % of control ([2]; 24 h incubation) [%] | further results
1 | Nc1ccc2cc3ccccc3cc2c1 [2AA, 2-aminoanthracene, reference compound] | 1.00 ± 0.07 | 1.02 ± 0.08 | – | – | – | – | – | – | – | – | – | – | – | – | G (growth ratio) [1, 5]: 0.92 ± 0.10; IR (induction ratio) [1, 5]: 2.37 ± 0.48; IR (induction ratio) [1, 6]: 2.00 ± 0.53; G (growth ratio) [1, 7]: 0.86 ± 0.09; IR (induction ratio) [1, 7]: 2.91 ± 0.54; IR (induction ratio) [1, 8]: 2.17 ± 0.39
2 | [Ca+2].[Cl-].[Cl-] [Ca, calcium chloride] | – | 1.19 ± 0.13 | 80 ± 9 | 1.13 ± 0.08 | 1.11 ± 0.05 | + (anti-genotoxicty of used compound(s) ≤ 20%) | 1.11 ± 0.09 | – | – | – | – | – | – | – | –
3 | O=S(=O)([O-])[O-].[Cu+2] [Cu, copper(II)/cupric sulphate] | 1.11 ± 0.12 | – | 80 ± 14 | 0.98 ± 0.10 | 1.00 ± 0.12 | – | – | ++ ++ (anti-genotoxicty of used compound(s) 21–40%) | ++ ++ (anti-genotoxicty of used compound(s) 21–40%) | 33 | 26 | 26–33% | – | – | –
4 | O=S(=O)([O-])[O-].[Fe+2] [Fe, iron(II) sulphate] | 1.10 ± 0.06 | – | – | 1.10 ± 0.10 | – | + (anti-genotoxicty of used compound(s) ≤ 20%) | – | ++ (anti-genotoxicty of used compound(s) 21–40%) | + (anti-genotoxicty of used compound(s) ≤ 20%) | 21 | 14 | 14–21% | did not induce apoptosis | – | G (growth ratio) ([1]; +S9, isoflavone 10 μM, minerals Zn 0.5, Se 0.03, Cu 0.5, Fe 1.5, Ca 40 μg/mL): 0.98 ± 0.10
5 | O=[Se](=O)([O-])[O-].[Na+].[Na+] [Se, sodium selenate] | 1.18 ± 0.10 | 1.17 ± 0.12 | 84 ± 11 | 1.10 ± 0.09 | 1.11 ± 0.05 | – | 1.14 ± 0.11 | – | – | – | – | – | did not induce apoptosis | – | –
6 | O=S(=O)([O-])[O-].[Zn+2] [Zn, Zinc sulphate] | – | – | 82 ± 10 | – | – | – | – | – | – | – | – | – | – | – | –
7 | CC[C@@]1(O)C(=O)OCc2c1cc1n(c2=O)Cc2cc3ccccc3nc2-1 [camptothecin, reference compound] | – | – | – | – | – | – | – | – | – | – | – | – | condensed chromatin or apoptotic nuclei | – | –
8 | O=c1c(-c2ccc(O)cc2)coc2cc(O)ccc12 [dai, daidzein] | – | – | 70 ± 7 | – | – | – | – | – | – | – | – | – | – | 84 ± 10 | –
9 | Oc1ccc([C@H]2COc3cc(O)ccc3C2)cc1 [eq, equol] | – | – | 60 ± 9 | – | – | – | 1.18 ± 0.33 | + (anti-genotoxicty of used compound(s) ≤ 20%) | ++ (anti-genotoxicty of used compound(s) 21–40%) | – | – | 29–34% | – | 81 ± 9 | G (growth ratio) ([3]; 4NQO […], daidzein or equol 10 μM with or without mineral (Table 3)): 0.97 ± 0.26; G (growth ratio) [1, 5]: 0.99 ± 0.11; %Anti-Genotox. ([1]; inhibition of IR induced by 2AA 1 mg/L, +S9 (Table 6)): 34%; %Anti-Genotox. ([1]; inhibition of IR induced by 2AA 5 mg/L, +S9 (Table 6)): 29%
10 | O=c1c(-c2ccc(O)cc2)coc2cc(O)cc(O)c12 [gen, genistein] | – | 1.21 ± 0.17 | 55 ± 9 | – | 1.12 ± 0.24 | + (anti-genotoxicty of used compound(s) ≤ 20%) | 1.28 ± 0.35 | ++ (anti-genotoxicty of used compound(s) 21–40%) | + (anti-genotoxicty of used compound(s) ≤ 20%) | 32 | 17 | 17–32% | did not induce apoptosis | 72 ± 9 | –

From PMC8949525, “Essential Elements and Isoflavonoids in the Prevention of Prostate Cancer” (Nutrients, 2022)
